Results: PubChem BioAssay (NCI)
Where “and” joins values, the source holds several entries; their conditions need not be identical. Equal entries are not always repeated.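 Five concentrations, 48 hours, 96-well plates. GI50: concentration for 50% inhibition of growth. TGI denotes the concentration required for complete inhibition of growth.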

How the values were obtained:
Test in all cases: NCI-60 cell line screen, 48 h
KM12 colon = tested on: KM12 colon
HCT-116 colon = tested on: HCT-116 colon
NCI/ADR-RES ovarian = tested on: NCI/ADR-RES ovarian
HCC-2998 colon = tested on: HCC-2998 colon
NCI-H226 lung = tested on: NCI-H226 lung
ACHN renal = tested on: ACHN renal
HCT-15 colon = tested on: HCT-15 colon
BT-549 breast = tested on: BT-549 breast
T-47D breast = tested on: T-47D breast
OVCAR-8 ovarian = tested on: OVCAR-8 ovarian

| Compound | GI50 (KM12 colon) [µM] | TGI (KM12 colon) [µM] | GI50 (HCT-116 colon) [µM] | TGI (HCT-116 colon) [µM] | GI50 (NCI/ADR-RES ovarian) [µM] | TGI (NCI/ADR-RES ovarian) [µM] | GI50 (HCC-2998 colon) [µM] | TGI (HCC-2998 colon) | GI50 (NCI-H226 lung) [µM] | TGI (NCI-H226 lung) [µM] | GI50 (ACHN renal) [µM] | TGI (ACHN renal) [µM] | GI50 (HCT-15 colon) [µM] | TGI (HCT-15 colon) [µM] | GI50 (BT-549 breast) [µM] | TGI (BT-549 breast) [µM] | GI50 (T-47D breast) [µM] | TGI (T-47D breast) [µM] | GI50 (OVCAR-8 ovarian) [µM] | TGI (OVCAR-8 ovarian) [µM] |
| --- | --- | --- | --- | --- | --- | --- | --- | --- | --- | --- | --- | --- | --- | --- | --- | --- | --- | --- | --- | --- |
| CC(C)=Cc1cccc2[nH]c(O)c(N=Nc3ccc(S(N)(=O)=O)cc3)c12 | 0.1 | > 18.6 | 1.74 | > 14.3 | > 23.4 | > 25 | > 25 | > 25 µM | > 6.16 | > 25 | 2.09 | > 25 | 4.32 | > 25 | > 22.8 | > 25 | > 25 | > 25 | 5 | > 25 |
| CC1OC(CC(=O)O)Cc2c1c(O)c1c(O)cc(-c3cc(=O)c4c(=O)c5c(c(=O)c=4c3=O)CC(CC(=O)O)OC5C)c(O)c1c2O (stereo unspecified) | 32.5 | > 100 | 30.4 | 27.2 | 59.6 | – | 18.9 | > 73.9 µM and 55.2 µM | 46.8 | > 75.4 | 43.3 | > 81 | 61.6 | 16.7 | 52.7 | – | 30 | – | – | 75.9 |
| Cc1ccc(-c2nc(/C=N/Nc3cc(C)nc4ccc(Br)cc34)c(C)o2)cc1 | 1.89 | 3.6 | 1.85 | 3.46 | 1.99 | 4.46 | 1.74 | 3.28 µM | 15 | 42.1 | 1.8 | 3.21 | 1.86 | 3.64 | 14 | 29.3 | 1.94 | 3.94 | 2.08 | 4.4 |
| O=C1c2ccccc2C(=O)c2c1oc1c2c(=O)[nH]c2ccc(Cl)cc21 | 0.447 | 3.02 | 0.307 | 1.09 | 0.354 | 1.77 | 0.637 | 2.55 µM | 0.143 | 0.355 | 0.203 | 0.577 | 0.208 | 0.512 | 0.304 | 1.31 | 0.256 | 0.981 | 0.389 | 2.29 |
| O=C1OC(c2ccc(Cl)cc2)=N/C1=C\c1ccccc1 | – | > 100 | – | > 100 | – | > 100 | – | > 100 µM | – | > 100 | – | > 100 | – | > 100 | – | > 100 | – | > 100 | – | > 100 |
| O=C(Nc1ccccc1Cl)c1ccc(NC2=C(Cl)C(=O)N(C3CCCCC3)C2=O)cc1 | 16.9 | 35.7 | 5.51 | 36.1 | 29.3 | 82.8 | 3.55 | 6.05 µM | 9.4 | 31.8 | 10.6 | 30.4 | 6.79 | 25.2 | 20.7 | 47.1 | 6.41 | 34.8 | 2.99 | 18.5 |
| COC(=O)C1=C(C(=O)ON)[C@@H]2C=C[C@@]1([C@@H](Cc1ccccc1)Nc1ccccc1)O2 | 15.5 | 32.1 | 1.67 | 3.24 | 17.4 | 35.9 | 17.2 | 32.5 µM | 14.5 | 28.8 | 1.67 | 3.04 | 1.76 | 4.1 | 7.06 | 19.6 | 1.61 | 4.17 | 14.4 | 27.9 |
